Drawing on patent US11897867B2, “6-phenyl-4,5-dihydropyridazin-3(2H)-one derivatives as PDE3A and PDE3B inhibitors for treating cancer” (Bayer Aktiengesellschaft, priority 2017, dated 2024), this text covers IC50 for 25 compounds.

Bounds are passed on as bounds.

For one assay, the system named is SK-MEL-3 (melanoma). Nature of the assay: Cell proliferation measurement (Cell Titer Glo), SK-MEL-3. The assay is classed as cell-based. Conditions: Homo sapiens, SK-MEL3, SK-MEL-3 cells, 72 h treatment, read-out: Anti-proliferation IC50 SK-MEL-3 (melanoma). In outline: (§1)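 Cells (1000/well; 500 for HeLa) plated overnight at 37 °C, then exposed to a ≥10-point compound dilution series for 72 h at 37 °C, DMSO 0.3% final as vehicle. Viability read by CellTiter-Glo luminescence; IC50 from 4-parameter fit against untreated wells.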

Another assay has as its target T1, human full length PDE3B (Homo sapiens, UniProt Q13370).
T1 construct: Sf9 cells overexpressing human full length PDE3B; purchased SB Drug Discovery, UK; host or cells: Sf9 cells (cell extract)
In words: PDE3B enzyme inhibition (3H-cAMP Scintillation Proximity Assay). The assay is classed as biochemical. The following applies: PDE3B cell extract from Sf9 cells, 60 min room temperature; read-out: Target IC50 PDE3B IC50. The essentials:
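SPA with Sf9 cell extract overexpressing human full-length PDE3B, diluted for linear kinetics and <70% substrate turnover, in 50 mM Tris/HCl pH 7.5, 8.3 mM MgCl2, 1.7 mM EDTA, 0.2% BSA. [8-3H]cAMP substrate, 60 min at room temperature, stopped with yttrium SPA beads. IC50 from sigmoidal fit of % activity vs log concentration.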

Assay [1] has as its system HeLa cells (cervical cancer). In words: Cell proliferation measurement (Cell Titer Glo), HeLa. It is filed as cell-based. The following applies: Homo sapiens, 72 h treatment, read-out: Anti-proliferation IC50 HeLa (Cervical cancer). The essentials:
as §1

In another assay the target is T2, human full length PDE3A (Homo sapiens, UniProt Q14432).
T2 construct: Sf9 cells overexpressing human full length PDE3A; purchased SB Drug Discovery, UK; host or cells: Sf9 cells (cell extract)
In words: PDE3A enzyme inhibition (3H-cAMP Scintillation Proximity Assay). The assay is classed as biochemical. The following applies: PDE3A cell extract from Sf9 cells, 60 min room temperature; read-out: Target IC50 PDE3A IC50. The essentials: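 Sf9 cell extract overexpressing human full-length PDE3A, diluted for linear kinetics (<70% substrate used), in 50 mM Tris/HCl pH 7.5, 8.3 mM MgCl2, 1.7 mM EDTA, 0.2% BSA. [8-3H]cAMP substrate, 60 min at room temperature, yttrium SPA bead read-out; IC50 from sigmoidal curves of % activity.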

T2 sequence (Q14432 whole entry): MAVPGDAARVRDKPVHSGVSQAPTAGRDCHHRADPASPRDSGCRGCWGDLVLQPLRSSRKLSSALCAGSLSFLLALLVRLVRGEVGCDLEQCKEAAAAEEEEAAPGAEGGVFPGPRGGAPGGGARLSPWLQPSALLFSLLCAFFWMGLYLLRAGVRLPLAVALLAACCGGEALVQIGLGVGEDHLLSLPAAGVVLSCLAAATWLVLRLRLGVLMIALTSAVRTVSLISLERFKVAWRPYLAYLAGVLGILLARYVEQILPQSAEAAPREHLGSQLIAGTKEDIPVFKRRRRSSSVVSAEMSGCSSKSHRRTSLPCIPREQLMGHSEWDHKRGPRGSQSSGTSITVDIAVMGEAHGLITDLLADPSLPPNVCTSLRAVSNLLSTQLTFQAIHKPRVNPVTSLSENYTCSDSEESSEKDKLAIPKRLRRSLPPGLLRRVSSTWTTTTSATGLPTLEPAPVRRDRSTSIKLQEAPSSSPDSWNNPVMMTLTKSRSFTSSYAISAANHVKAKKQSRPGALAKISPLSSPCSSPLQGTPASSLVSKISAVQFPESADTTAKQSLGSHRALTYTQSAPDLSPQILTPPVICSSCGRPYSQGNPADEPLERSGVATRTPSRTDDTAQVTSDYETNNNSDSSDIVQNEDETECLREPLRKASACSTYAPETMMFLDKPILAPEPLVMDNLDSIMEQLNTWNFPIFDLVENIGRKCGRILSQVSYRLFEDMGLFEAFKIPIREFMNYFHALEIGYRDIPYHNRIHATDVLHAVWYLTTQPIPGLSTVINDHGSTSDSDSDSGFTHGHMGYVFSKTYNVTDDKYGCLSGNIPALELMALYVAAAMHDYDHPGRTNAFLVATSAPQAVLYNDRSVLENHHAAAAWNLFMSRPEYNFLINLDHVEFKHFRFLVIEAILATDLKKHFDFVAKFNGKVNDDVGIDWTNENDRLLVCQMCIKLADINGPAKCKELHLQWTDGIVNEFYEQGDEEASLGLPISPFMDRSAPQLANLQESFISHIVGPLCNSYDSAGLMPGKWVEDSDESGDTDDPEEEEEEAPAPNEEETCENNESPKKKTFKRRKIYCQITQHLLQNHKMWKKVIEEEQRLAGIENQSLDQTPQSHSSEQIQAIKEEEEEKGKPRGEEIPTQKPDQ
T1 sequence (Q13370 whole entry): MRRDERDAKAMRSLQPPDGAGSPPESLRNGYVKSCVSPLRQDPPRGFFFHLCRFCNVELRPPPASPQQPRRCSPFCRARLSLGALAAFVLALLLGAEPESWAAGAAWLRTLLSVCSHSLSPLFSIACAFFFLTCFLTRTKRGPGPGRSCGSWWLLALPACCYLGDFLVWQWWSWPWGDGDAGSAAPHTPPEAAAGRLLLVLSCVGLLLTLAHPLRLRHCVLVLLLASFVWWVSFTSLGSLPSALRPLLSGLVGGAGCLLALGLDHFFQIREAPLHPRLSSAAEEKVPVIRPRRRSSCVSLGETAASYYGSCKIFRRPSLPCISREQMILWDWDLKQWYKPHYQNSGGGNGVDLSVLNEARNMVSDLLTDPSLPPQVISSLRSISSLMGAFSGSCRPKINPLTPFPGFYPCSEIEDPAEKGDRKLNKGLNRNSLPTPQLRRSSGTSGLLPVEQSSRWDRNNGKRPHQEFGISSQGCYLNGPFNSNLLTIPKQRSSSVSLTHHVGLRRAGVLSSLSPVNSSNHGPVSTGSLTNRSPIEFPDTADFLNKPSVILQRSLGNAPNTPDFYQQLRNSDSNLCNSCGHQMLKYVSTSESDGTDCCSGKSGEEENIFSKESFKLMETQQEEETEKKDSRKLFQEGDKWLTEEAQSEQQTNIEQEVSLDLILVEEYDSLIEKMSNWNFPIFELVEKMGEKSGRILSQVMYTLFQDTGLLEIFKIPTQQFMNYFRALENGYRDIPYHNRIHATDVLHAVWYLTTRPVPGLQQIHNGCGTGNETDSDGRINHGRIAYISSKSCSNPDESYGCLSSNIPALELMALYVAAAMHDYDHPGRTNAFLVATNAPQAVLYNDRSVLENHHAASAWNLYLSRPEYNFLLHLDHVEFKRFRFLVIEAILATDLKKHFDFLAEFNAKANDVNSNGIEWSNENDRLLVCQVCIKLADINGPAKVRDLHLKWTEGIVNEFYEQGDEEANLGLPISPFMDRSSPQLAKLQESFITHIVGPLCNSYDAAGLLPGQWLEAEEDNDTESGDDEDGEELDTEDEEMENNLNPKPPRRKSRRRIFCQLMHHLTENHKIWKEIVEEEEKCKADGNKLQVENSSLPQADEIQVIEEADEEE

As for `COc1ncccc1-c1ccc(C2=NNC(=O)CC2)cc1F` [Example 70, 6-[3-fluoro-4-(2-methoxypyridin-3-yl)phenyl]-4,5-dihydropyridazin-3(2H)-one], the IC50 with SK-MEL-3 (melanoma) was 39.8 nM; on human full length PDE3B it was 50 nM; in assay [1] it was 22.9 nM; on human full length PDE3A it was 57 nM.

As for `O=C1CCC(c2ccc(-c3ccc(F)nc3)c(F)c2)=NN1` [Example 71, 6-[3-fluoro-4-(6-fluoropyridin-3-yl)phenyl]-4,5-dihydropyridazin-3(2H)-one], the IC50 in the assay with SK-MEL-3 (melanoma) amounted to 11.6 nM; at human full length PDE3B, 120 nM; in assay [1], 7.82 nM; on human full length PDE3A, 120 nM.

In the case of `O=C1CCC(c2ccc(-c3cccnc3F)c(F)c2)=NN1` [Example 72, 6-[3-fluoro-4-(2-fluoropyridin-3-yl)phenyl]-4,5-dihydropyridazin-3(2H)-one], the IC50 with SK-MEL-3 (melanoma) was 6.25 nM; at human full length PDE3B, 35 nM; in assay [1], 4.27 nM; at human full length PDE3A, 39 nM.

Regarding `Cc1cnccc1-c1ccc(C2=NNC(=O)CC2)cc1F` [Example 73, 6-[3-fluoro-4-(3-methylpyridin-4-yl)phenyl]-4,5-dihydropyridazin-3(2H)-one], the IC50 with SK-MEL-3 (melanoma) came out at 15.4 nM; on human full length PDE3B, 39 nM; in assay [1] it was 9.52 nM; on human full length PDE3A, 52 nM.

Take `O=C1CCC(c2ccc(-c3ccc4cc[nH]c4c3)c(F)c2)=NN1` [Example 74, 6-[3-fluoro-4-(1H-indol-6-yl)phenyl]-4,5-dihydropyridazin-3(2H)-one]: the IC50 in the assay on SK-MEL-3 (melanoma) was determined as 21 nM; on human full length PDE3B it was 180 nM; in assay [1], 13.3 nM; on human full length PDE3A, 110 nM.

Take `O=C1CCC(c2ccc(-c3cccc4[nH]ccc34)c(F)c2)=NN1` [Example 75, 6-[3-fluoro-4-(1H-indol-4-yl)phenyl]-4,5-dihydropyridazin-3(2H)-one]: the IC50 with SK-MEL-3 (melanoma) was determined as 43.5 nM; at human full length PDE3B it was 120 nM; in assay [1], 27.6 nM; on human full length PDE3A, 100 nM.

As for `Nc1ccc(-c2ccc(C3=NNC(=O)CC3)cc2F)cc1` [Example 76, 6-(4′-amino-2-fluoro[1,1′-biphenyl]-4-yl)-4,5-dihydropyridazin-3(2H)-one], the IC50 with SK-MEL-3 (melanoma) came to 8.73 nM; at human full length PDE3B it was 89 nM; in assay [1] it was 5.52 nM; on human full length PDE3A, 90 nM.

Regarding `Cc1ccccc1-c1ccc(C2=NNC(=O)CC2)cc1F` [Example 77, 6-(2-fluoro-2′-methyl[1,1′-biphenyl]-4-yl)-4,5-dihydropyridazin-3(2H)-one], the IC50 turned out to be 4.53 nM with SK-MEL-3 (melanoma), 80 nM at human full length PDE3B, 2.04 nM in assay [1] and 100 nM at human full length PDE3A.

As to `COc1cccc(-c2ccc(C3=NNC(=O)CC3)cc2F)c1OC` [Example 78, 6-(2-fluoro-2′,3′-dimethoxy[1,1′-biphenyl]-4-yl)-4,5-dihydropyridazin-3(2H)-one], the IC50 is 69 nM in the assay with SK-MEL-3 (melanoma), 600 nM on human full length PDE3B, 53.3 nM in assay [1] and 320 nM on human full length PDE3A.

As to `O=C1CCC(c2ccc(C3=CCCCC3)c(F)c2)=NN1` [Example 79, 6-(2-fluoro-2′,3′,4′,5′-tetrahydro[1,1′-biphenyl]-4-yl)-4,5-dihydropyridazin-3(2H)-one], the IC50 in the assay with SK-MEL-3 (melanoma) stood at 6.15 nM; at human full length PDE3B, 170 nM; in assay [1], 4.47 nM; at human full length PDE3A, 170 nM.

`O=C1CCC(c2ccc(C3=CCCC3)c(F)c2)=NN1` [Example 80, 6-[4-(cyclopent-1-en-1-yl)-3-fluorophenyl]-4,5-dihydropyridazin-3(2H)-one]: the IC50 in the assay with SK-MEL-3 (melanoma) is 4.13 nM; at human full length PDE3B, 310 nM; in assay [1] it was 2.67 nM; on human full length PDE3A it was 220 nM.

Regarding `CCc1ccccc1-c1ccc(C2=NNC(=O)CC2)cc1F` [Example 81, 6-(2′-ethyl-2-fluoro[1,1′-biphenyl]-4-yl)-4,5-dihydropyridazin-3(2H)-one], the IC50 in the assay on SK-MEL-3 (melanoma) worked out at 26.3 nM; on human full length PDE3B, 230 nM; in assay [1] it was 13.9 nM; at human full length PDE3A, 370 nM.

With `COc1ccc(-c2ccc(C3=NNC(=O)CC3)cc2F)cn1` [Example 82, 6-[3-fluoro-4-(6-methoxypyridin-3-yl)phenyl]-4,5-dihydropyridazin-3(2H)-one], the IC50 in the assay with SK-MEL-3 (melanoma) was determined as 23.6 nM; at human full length PDE3B, 85 nM; in assay [1] it was 14 nM; on human full length PDE3A, 83 nM.

Consider `O=C1CCC(c2ccc(-c3ccc(F)c(Cl)c3)c(F)c2)=NN1` [Example 83, 6-(3′-chloro-2,4′-difluoro[1,1′-biphenyl]-4-yl)-4,5-dihydropyridazin-3(2H)-one], for which the IC50 in the assay with SK-MEL-3 (melanoma) came out at 61.8 nM; on human full length PDE3B it was 280 nM; in assay [1] it was 39.7 nM; on human full length PDE3A it was 560 nM.

Turning to `Cc1cc(-c2ccc(C3=NNC(=O)CC3)cc2F)ccc1F` [Example 84, 6-(2,4′-difluoro-3′-methyl[1,1′-biphenyl]-4-yl)-4,5-dihydropyridazin-3(2H)-one], the IC50 in the assay on SK-MEL-3 (melanoma) worked out at 41 nM; on human full length PDE3B, 220 nM; in assay [1], 16.1 nM; at human full length PDE3A it was 270 nM.

Consider `Cc1cccc(-c2ccc(C3=NNC(=O)CC3)cc2F)c1C` [Example 85, 6-(2-fluoro-2′,3′-dimethyl[1,1′-biphenyl]-4-yl)-4,5-dihydropyridazin-3(2H)-one], for which the IC50 was found to be 40.4 nM in the assay with SK-MEL-3 (melanoma), 150 nM on human full length PDE3B, 18.9 nM in assay [1] and 240 nM at human full length PDE3A.

As for `COc1ccc(-c2ccc(C3=NNC(=O)CC3)cc2F)cc1` [Example 86, 6-(2-fluoro-4′-methoxy[1,1′-biphenyl]-4-yl)-4,5-dihydropyridazin-3(2H)-one], the IC50 amounted to 59.8 nM in the assay with SK-MEL-3 (melanoma), 310 nM on human full length PDE3B, 10.6 nM in assay [1] and 280 nM on human full length PDE3A.

For `Cc1ccc(-c2ccc(C3=NNC(=O)CC3)cc2F)cc1` [Example 87, 6-(2-fluoro-4′-methyl[1,1′-biphenyl]-4-yl)-4,5-dihydropyridazin-3(2H)-one], the IC50 in the assay with SK-MEL-3 (melanoma) was 8.15 nM; on human full length PDE3B, 215 nM; in assay [1], 3.72 nM; on human full length PDE3A it was 385 nM.

As for `Cc1ccc(C)c(-c2ccc(C3=NNC(=O)CC3)cc2F)c1` [Example 88, 6-(2-fluoro-2′,5′-dimethyl[1,1′-biphenyl]-4-yl)-4,5-dihydropyridazin-3(2H)-one], the IC50 with SK-MEL-3 (melanoma) was above 100 nM; at human full length PDE3B, 230 nM; in assay [1], 91.6 nM; on human full length PDE3A, 230 nM.

Consider `N#Cc1ccc(F)c(-c2ccc(C3=NNC(=O)CC3)cc2F)c1` [Example 89, 2′,6-difluoro-4′-(6-oxo-1,4,5,6-tetrahydropyridazin-3-yl)[1,1′-biphenyl]-3-carbonitrile], for which the IC50 is above 100 nM in the assay on SK-MEL-3 (melanoma), 150 nM on human full length PDE3B, 74.3 nM in assay [1] and 140 nM at human full length PDE3A.

For the compound `Cc1cc(C2=NNC(=O)CC2)ccc1-c1ccnc(N)c1` [Example 90, 6-[4-(2-aminopyridin-4-yl)-3-methylphenyl]-4,5-dihydropyridazin-3(2H)-one], the IC50 was above 100 nM in the assay with SK-MEL-3 (melanoma), 65 nM on human full length PDE3B, 16 nM in assay [1] and 47 nM on human full length PDE3A.

With `Cc1cc(C2=NNC(=O)CC2)ccc1-c1cnc(N)nc1` [Example 91, 6-[4-(2-aminopyrimidin-5-yl)-3-methylphenyl]-4,5-dihydropyridazin-3(2H)-one], the IC50 with SK-MEL-3 (melanoma) was above 100 nM; on human full length PDE3B, 73 nM; in assay [1], 51.9 nM; at human full length PDE3A, 57 nM.

In the case of `Cc1ncc(-c2ccc(C3=NNC(=O)CC3)cc2C)cn1` [Example 92, 6-[3-methyl-4-(2-methylpyrimidin-5-yl)phenyl]-4,5-dihydropyridazin-3(2H)-one], the IC50 in the assay on SK-MEL-3 (melanoma) was above 100 nM; at human full length PDE3B it was 88 nM; in assay [1], 42.3 nM; at human full length PDE3A it was 61 nM.

`Cc1ccc(-c2ccc(C3=NNC(=O)CC3)cc2C)cn1` [Example 93, 6-[3-methyl-4-(6-methylpyridin-3-yl)phenyl]-4,5-dihydropyridazin-3(2H)-one]: the IC50 with SK-MEL-3 (melanoma) worked out at 24.7 nM; on human full length PDE3B, 49 nM; in assay [1], 5.39 nM; on human full length PDE3A, 38 nM.

On to `Cc1ccc(-c2ccc(C3=NNC(=O)CC3)cc2C)c(F)c1` [Example 94, 6-(2′-fluoro-2,4′-dimethyl[1,1′-biphenyl]-4-yl)-4,5-dihydropyridazin-3(2H)-one], for which the IC50 in the assay on SK-MEL-3 (melanoma) was found to be 36.9 nM; on human full length PDE3B it was 175 nM; in assay [1], 7.01 nM; on human full length PDE3A, 190 nM.
